pEC50, pIC50: −log10 of the molar value.
Legend:
[1] = test system: nicotinic receptors associated with dopamine release; assay: Dopamine release (receptor activation/inhibition); assay type: biochemical; conditions: for Emax, dopamine release: amount released relative to (S)-(−)-nicotine
Method: Determination of Receptor Activation/Inhibition and Dopamine Release
Dopamine release was measured using the techniques described in U.S. Pat. No. 5,597,919 to Dull et al. Release is expressed as a percentage of release obtained with a concentration of (S)-(−)-nicotine resulting in maximal effects. Reported EC50 values are expressed in nM, and Emax values represent the amount released relative to (S)-(−)-nicotine or tetramethylammonium ion (TMA), on a percentage basis.
Reported IC50 values are expressed in nM and represent the concentration resulting in 50% inhibition of agonist induced receptor activation. Emax values represent the amount released relative to (S)-(−)-nicotine on a percentage basis.

ganglia-type receptors = assay: Determination of interaction with ganglion receptors; assay type: cell-based; conditions: percentage of maximal activation induced by (S)-(−)-nicotine
Method: (§1) Determination of Interaction with Ganglion Receptors The determination of the interaction of the compounds with ganglionic receptors was carried out in accordance with the techniques described in U.S. Pat. No. 5,597,919 to Dull et al. The maximal activation for individual compounds (Emax) was determined as a percentage of the maximal activation induced by (S)-(−)-nicotine. Reported Emax values represent the amount released relative to (S)-(−)-nicotine on a percentage basis.

muscle-type receptors = muscle-type receptors (Homo sapiens, UniProt P02708+P07510+P11230+Q07001); assay: Determination of interaction with muscle receptors; assay type: cell-based; conditions: percentage of maximal activation induced by (S)-(−)-nicotine
Method: Determination of Interaction with Muscle Receptors
as §1, with “The” for “Determination of Interaction with Ganglion Receptors The”, “muscle” for “ganglionic”

muscle-type receptors, sequence (P02708 whole entry): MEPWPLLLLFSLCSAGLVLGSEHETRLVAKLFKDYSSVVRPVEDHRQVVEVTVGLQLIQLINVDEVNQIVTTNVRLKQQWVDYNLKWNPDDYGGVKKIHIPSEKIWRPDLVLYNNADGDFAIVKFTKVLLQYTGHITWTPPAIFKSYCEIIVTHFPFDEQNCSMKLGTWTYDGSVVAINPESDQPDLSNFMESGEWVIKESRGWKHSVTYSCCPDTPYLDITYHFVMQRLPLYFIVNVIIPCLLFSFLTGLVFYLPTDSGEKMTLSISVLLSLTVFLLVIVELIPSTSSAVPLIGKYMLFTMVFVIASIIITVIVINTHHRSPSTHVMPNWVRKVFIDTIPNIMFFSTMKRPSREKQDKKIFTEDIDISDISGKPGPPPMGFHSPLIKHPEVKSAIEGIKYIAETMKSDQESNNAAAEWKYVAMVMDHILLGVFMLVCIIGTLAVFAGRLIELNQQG
muscle-type receptors, sequence (P11230 24-501): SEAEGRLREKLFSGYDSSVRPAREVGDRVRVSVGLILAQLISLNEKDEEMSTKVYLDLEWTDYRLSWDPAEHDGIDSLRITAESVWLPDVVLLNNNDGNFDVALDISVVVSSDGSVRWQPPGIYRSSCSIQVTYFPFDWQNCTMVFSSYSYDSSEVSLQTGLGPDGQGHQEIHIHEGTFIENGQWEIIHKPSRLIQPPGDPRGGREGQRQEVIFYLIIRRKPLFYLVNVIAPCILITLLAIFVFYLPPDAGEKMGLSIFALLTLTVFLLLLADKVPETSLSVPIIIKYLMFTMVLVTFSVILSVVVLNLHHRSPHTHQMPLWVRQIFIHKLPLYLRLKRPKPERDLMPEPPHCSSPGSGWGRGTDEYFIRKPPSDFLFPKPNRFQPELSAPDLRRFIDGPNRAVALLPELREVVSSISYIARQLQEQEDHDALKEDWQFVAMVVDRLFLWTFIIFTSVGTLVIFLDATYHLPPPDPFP
muscle-type receptors, sequence (P07510 23-517): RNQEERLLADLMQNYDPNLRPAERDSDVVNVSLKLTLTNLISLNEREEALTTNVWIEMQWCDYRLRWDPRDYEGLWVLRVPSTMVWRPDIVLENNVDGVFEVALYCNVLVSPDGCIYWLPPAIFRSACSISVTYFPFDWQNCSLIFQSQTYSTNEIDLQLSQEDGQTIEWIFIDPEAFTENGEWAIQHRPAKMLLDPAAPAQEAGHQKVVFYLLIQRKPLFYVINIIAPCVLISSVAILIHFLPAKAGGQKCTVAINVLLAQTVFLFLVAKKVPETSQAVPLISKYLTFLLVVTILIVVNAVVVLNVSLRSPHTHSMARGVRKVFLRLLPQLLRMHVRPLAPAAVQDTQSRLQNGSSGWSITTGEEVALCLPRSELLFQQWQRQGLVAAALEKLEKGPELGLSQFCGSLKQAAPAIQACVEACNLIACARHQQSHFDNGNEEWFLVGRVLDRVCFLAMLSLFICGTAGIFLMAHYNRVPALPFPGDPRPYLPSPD
muscle-type receptors, sequence (Q07001 22-517): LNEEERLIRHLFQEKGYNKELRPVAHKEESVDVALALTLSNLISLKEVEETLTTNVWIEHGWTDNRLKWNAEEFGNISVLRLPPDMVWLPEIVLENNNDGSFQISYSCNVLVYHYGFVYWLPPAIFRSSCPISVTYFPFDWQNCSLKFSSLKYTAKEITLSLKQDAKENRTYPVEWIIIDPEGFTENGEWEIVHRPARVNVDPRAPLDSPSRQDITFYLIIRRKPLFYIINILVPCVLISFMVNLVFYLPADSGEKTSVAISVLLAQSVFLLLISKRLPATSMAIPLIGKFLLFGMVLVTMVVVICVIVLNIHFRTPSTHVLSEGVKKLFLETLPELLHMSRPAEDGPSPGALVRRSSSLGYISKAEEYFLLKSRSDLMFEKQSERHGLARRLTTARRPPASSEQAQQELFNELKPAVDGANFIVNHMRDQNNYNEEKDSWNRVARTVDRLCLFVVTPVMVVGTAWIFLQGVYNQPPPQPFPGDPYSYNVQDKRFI

| SMILES | Emax, dopamine release [1] | Emax at ganglia-type receptors (ganglia-type receptors) | Emax (muscle-type receptors) | pEC50 [1] | pIC50 ([1]; concentration resulting in 50% inhibition of agonist induced receptor activation) |
| --- | --- | --- | --- | --- | --- |
| c1cncc(C2C3CC4CC(C3)CN2C4)c1 (centres unmarked) [Sample No. 1, 1-aza-2-(3-pyridyl)-tricyclo[3.3.1.1^3,7]decane] | 0% | 27% | 21% | – | – |
| Brc1cncc(C2C3CC4CC(C3)CN2C4)c1 (centres unmarked) [Sample No. 2, 1-aza-2-[5-bromo(3-pyridyl)]tricyclo[3.3.1.1^3,7]decane] | 0% | 50% | 32% | < 4.00 | – |
| Cl.Cl.Cl.Nc1cncc(C2C3CC4CC(C3)CN2C4)c1 (centres unmarked) [Sample No. 3, 1-aza-2-[5-amino-(3-pyridyl)]tricyclo[3.3.1.1^3,7]decane trihydrochloride] | 0% | 17% | 75% | < 4.00 | – |
| CCOc1cncc(C2C3CC4CC(C3)CN2C4)c1 (centres unmarked) [Sample No. 4, 1-aza-2-[5-ethoxy-(3-pyridyl)]-tricyclo-[3.3.1.1^3,7]decane] | 0% | 0% | 22% | < 4.00 | 6.07 |
| CC(C)Oc1cncc(C2C3CC4CC(C3)CN2C4)c1 (centres unmarked) [Sample No. 5, 1-aza-2-[5-isopropoxy-(3-pyridyl)]tricyclo[3.3.1.1^3,7]decane] | 0% | 7% | 114% | < 4.00 | – |

Reference: patent US6417359B1, “Pharmaceutical compositions and methods for use” (priority 1998, dated 2002)
